Where two headings read alike, the source gives them in different places.
Columns and labels:
[1] = test system: Staphylococcus aureus (BAA-1717); experiment: Checkerboard combination / MIC assay with S. aureus BAA-1717 (MRSA); assay type: cell-based; conditions: for Effect of individual antibiotic combinations: S. aureus BAA-1717
Description: (§1) Colonies were suspended in PBS. The absorbance of each suspension was measured with a spectrophotometer, and then the suspension was adjusted to 1×10^6 CFU/mL. The testing inoculum was prepared within 20 minutes before adding to wells of the test plate. Final cellular density in the checkerboard assays was 5×10^5 CFU/mL.
(§2) The combination effect of antibacterial substances administered together was evaluated by an in vitro checkerboard combination method with Staphylococcus aureus (ATCC 29213) and Staphylococcus aureus (BAA-1717). Ramizol and Chlopam were tested alone in 11 points by two-fold serial titration and in combination with different commercial antibiotics which were tested in a 7-point titration alone and in combination with Ramizol and Chlopam using the checkerboard technique as recommended by the Clinical & Laboratory Standards Institute (CLSI. Methods for Dilution In Antimicrobial Susceptibility Tests for Bacteria That Grow Aerobically; Approved Standard-Eighth Edition. CLSI document M07-A8 (ISBN 1-56238-689-1). Vol. 29 No. 2. Clinical and Laboratory Standards Institute, USA, 2009). The commercial antibiotics were also tested alone. Twenty-four checkerboard tests were performed.
(§3) The starting concentration of Ramizol, Chlopam, and the commercial antibiotics was four fold of the MIC. The testing range for each combination was described in the following summary tables.
(§4) Compound dilutions of Ramizol and Chlopam were performed in 100% DMSO and the final DMSO concentration in all test wells was 2%. Growth control wells also included 2% DMSO. CLSI protocol was followed for medium, inoculum preparation, and endpoint reading. The commercial antibiotics were dissolved and diluted in the CLSI specified diluent. The final inoculum count for each strain was 5×10^5 CFU/mL.
Each test substance was dissolved and diluted in 100% DMSO or specified solvent. Each test substance dilution (2 μL) was added to 96 μL broth CAMHB. CAMHB seeded with S. aureus BAA-1717 at 1×10^6 CFU/mL (100 μL) was then added to the plate to generate a final cell count at 5×10^5 CFU/mL.
(§5) Assay plates were incubated and MIC endpoints were read as described in the MIC assay. FIC (Fraction Inhibitory Concentration) and FIC Index (FICI) values for each test condition and the average of FICI values of all pairwise combinations were calculated to determine if synergy or antagonism existed between the two substances. The FIC index was determined by calculating the sum of the ratios of MICs for both substances. Arithmetically, the FIC Index of a combination of Substance 1 and Substance 2 was defined as following: FICI=Σ[FIC(Substance 1)+FIC(Substance 2)]=[(MIC of Substance 1 in combination/MIC of Substance 1 alone)+(MIC of Substance 2 in combination/MIC of Substance 2 alone)]. Synergy is defined as the FICI (Σ)≤0.5; additivity as FICI (Σ)>0.5 to ≤1; indifference as FICI (Σ)>1 to ≤4; antagonism is defined as the FICI (Σ)>4 (Zinner and Blaser, J. Journal of Antimicrobial Chemotherapy (1986), 17, 1-5; Amin, et al BMC Complementary & Alternative Medicine (2015), 15, 59; Zuo, et al. Molecules (2011), 16, 9819-9826).

[2] = test system: Staphylococcus aureus (ATCC 29213); experiment: Checkerboard combination / MIC assay with S. aureus ATCC 29213; assay type: cell-based; conditions: S. aureus ATCC 29213; for MIC: Staphylococcus aureus, read-out: MIC of antibiotic alone
Description: as §1, §2, §3, §4
Cefepime, Daptomycin, Linezolid, Mupirocin, Oxacillin and Vancomycin were also tested alone. Each test substance was dissolved and diluted in 100% DMSO or specified solvent. Each test substance dilution (2 μL) was added to 96 μL broth CAMHB. CAMHB seeded with S. aureus ATCC 29213 at 1×10^6 CFU/mL (100 μL) was then added to the plate to generate a final cell count at 5×10^5 CFU/mL.
as §5

CCCCCCCCCC(=O)N[C@@H](Cc1c[nH]c2ccccc12)C(=O)N[C@H](CC(N)=O)C(=O)N[C@@H](CC(=O)O)C(=O)N[C@@H]1C(=O)NCC(=O)N[C@@H](CCCN)C(=O)N[C@@H](CC(=O)O)C(=O)N[C@H](C)C(=O)N[C@@H](CC(=O)O)C(=O)NCC(=O)N[C@H](CO)C(=O)N[C@@H]([C@H](C)CC(=O)O)C(=O)N[C@@H](CC(=O)c2ccccc2N)C(=O)O[C@@H]1C [Daptomycin]
FICI of combination with Chlopam ([1]; Chlopam 0.001953 μg/mL + labelled antibiotic at MIC of same cell, S. aureus ATCC BAA-1717): 1.0
MIC of antibiotic in combination with Chlopam ([1]; Chlopam 0.001953 μg/mL, S. aureus ATCC BAA-1717): 0.5 µg/mL
FICI of combination with Chlopam ([1]; Chlopam 0.003906 μg/mL + labelled antibiotic at MIC of same cell, S. aureus ATCC BAA-1717): 1.0
MIC of antibiotic in combination with Chlopam ([1]; Chlopam 0.003906 μg/mL, S. aureus ATCC BAA-1717): 0.5 µg/mL
FICI of combination with Chlopam ([1]; Chlopam 0.0078125 μg/mL + labelled antibiotic at MIC of same cell, S. aureus ATCC BAA-1717): 1.0
MIC of antibiotic in combination with Chlopam ([1]; Chlopam 0.0078125 μg/mL, S. aureus ATCC BAA-1717): 0.5 µg/mL
FICI of combination with Chlopam ([1]; Chlopam 0.015625 μg/mL + labelled antibiotic at MIC of same cell, S. aureus ATCC BAA-1717): 1.0
MIC of antibiotic in combination with Chlopam ([1]; Chlopam 0.015625 μg/mL, S. aureus ATCC BAA-1717): 0.5 µg/mL
FICI of combination with Chlopam ([1]; Chlopam 0.5 μg/mL + labelled antibiotic at MIC of same line, S. aureus ATCC BAA-1717): 1.0
MIC of antibiotic in combination with Chlopam ([1]; Chlopam 0.5 μg/mL, S. aureus ATCC BAA-1717): 0.016 µg/mL
Effect of individual antibiotic combinations ([1]; Chlopam and daptomycin: 0.001953 and 0.5, 0.003901 and 0.5, 0.0078125 and 0.5, 0.015625 and 0.5, 0.5 and 0.016 μg/mL): additive effect
FICI of combination with Ramizol ([1]; Ramizol 0.015625 μg/mL + labelled antibiotic at MIC of same cell, S. aureus ATCC BAA-1717): 1.0
MIC of antibiotic in combination with Ramizol ([1]; Ramizol 0.015625 μg/mL, S. aureus ATCC BAA-1717): 0.5 µg/mL
FICI of combination with Ramizol ([1]; Ramizol 0.03125 μg/mL + labelled antibiotic at MIC of same cell, S. aureus ATCC BAA-1717): 1.0
MIC of antibiotic in combination with Ramizol ([1]; Ramizol 0.03125 μg/mL, S. aureus ATCC BAA-1717): 0.5 µg/mL
FICI of combination with Ramizol ([1]; Ramizol 0.0625 μg/mL + labelled antibiotic at MIC of same cell, S. aureus ATCC BAA-1717): 1.0
MIC of antibiotic in combination with Ramizol ([1]; Ramizol 0.0625 μg/mL, S. aureus ATCC BAA-1717): 0.5 µg/mL
FICI of combination with Ramizol ([1]; Ramizol 0.125 μg/mL + labelled antibiotic at MIC of same line, S. aureus ATCC BAA-1717): 1.0
MIC of antibiotic in combination with Ramizol ([1]; Ramizol 0.125 μg/mL, S. aureus ATCC BAA-1717): 0.5 µg/mL
FICI of combination with Ramizol ([1]; Ramizol 2 μg/mL + labelled antibiotic at MIC of same line, S. aureus ATCC BAA-1717): 1.0
MIC of antibiotic in combination with Ramizol ([1]; Ramizol 2 μg/mL, S. aureus ATCC BAA-1717): 0.25 µg/mL
FICI of combination with Ramizol ([1]; Ramizol 4 μg/mL + labelled antibiotic at MIC of same cell, S. aureus ATCC BAA-1717): 1.0
MIC of antibiotic in combination with Ramizol ([1]; Ramizol 4 μg/mL, S. aureus ATCC BAA-1717): 0.016 µg/mL
Effect of individual antibiotic combinations ([1]; Ramizol and daptomycin: 0.015625 and 0.5, 0.03125 and 0.5, 0.0625 and 0.5, 0.125 and 0.5, 2 and 0.25, 4 and 0.016 μg/mL): additive effect
MIC ([1]; Staphylococcus aureus, ATCC BAA-1717 / BAA-1717, Table 4, checkerboard series with Chlopam, S. aureus ATCC BAA-1717, read-out: MIC of antibiotic alone): 0.5 µg/mL
MIC of antibiotic alone ([1]; Table 7, checkerboard series with Ramizol, S. aureus ATCC BAA-1717): 0.5 µg/mL
mean FICI of combination with Chlopam ([1]; labelled antibiotic + Chlopam, mean of all pairwise combinations, S. aureus ATCC BAA-1717): 1.2
mean FICI of combination with Ramizol ([1]; labelled antibiotic + Ramizol, mean of all pairwise combinations, S. aureus ATCC BAA-1717): 1.1
FICI of combination with Chlopam ([2]; Chlopam 0.003906 μg/mL + labelled antibiotic at MIC of same cell): 1.0
MIC of antibiotic in combination with Chlopam ([2]; Chlopam 0.003906 μg/mL): 0.5 µg/mL
FICI of combination with Chlopam ([2]; Chlopam 0.0078125 μg/mL + labelled antibiotic at MIC of same cell): 1.0
MIC of antibiotic in combination with Chlopam ([2]; Chlopam 0.0078125 μg/mL): 0.5 µg/mL
FICI of combination with Chlopam ([2]; Chlopam 0.015625 μg/mL + labelled antibiotic at MIC of same cell): 1.0
MIC of antibiotic in combination with Chlopam ([2]; Chlopam 0.015625 μg/mL): 0.5 µg/mL
FICI of combination with Chlopam ([2]; Chlopam 0.25 μg/mL + labelled antibiotic at MIC of same cell): 1.0
MIC of antibiotic in combination with Chlopam ([2]; Chlopam 0.25 μg/mL): 0.25 µg/mL
FICI of combination with Chlopam ([2]; Chlopam 0.5 μg/mL + labelled antibiotic at MIC of same cell): 1.0
MIC of antibiotic in combination with Chlopam ([2]; Chlopam 0.5 μg/mL): 0.016 µg/mL
Effect of individual antibiotic combinations ([2]; Chlopam and daptomycin: 0.003901 and 0.5, 0.0078125 and 0.5, 0.015625 and 0.5, 0.25 and 0.25, 0.5 and 0.016 μg/mL): additive effect
FICI of combination with Ramizol ([2]; Ramizol 0.015625 μg/mL + labelled antibiotic at MIC of same cell): 1.0
MIC of antibiotic in combination with Ramizol ([2]; Ramizol 0.015625 μg/mL): 0.5 µg/mL
FICI of combination with Ramizol ([2]; Ramizol 0.03125 μg/mL + labelled antibiotic at MIC of same cell): 1.0
MIC of antibiotic in combination with Ramizol ([2]; Ramizol 0.03125 μg/mL): 0.5 µg/mL
FICI of combination with Ramizol ([2]; Ramizol 0.0625 μg/mL + labelled antibiotic at MIC of same cell): 1.0
MIC of antibiotic in combination with Ramizol ([2]; Ramizol 0.0625 μg/mL): 0.5 µg/mL
FICI of combination with Ramizol ([2]; Ramizol 0.125 μg/mL + labelled antibiotic at MIC of same cell): 1.0
MIC of antibiotic in combination with Ramizol ([2]; Ramizol 0.125 μg/mL): 0.5 µg/mL
FICI of combination with Ramizol ([2]; Ramizol 4 μg/mL + labelled antibiotic at MIC of same cell): 1.0
MIC of antibiotic in combination with Ramizol ([2]; Ramizol 4 μg/mL): 0.016 µg/mL
Effect of individual antibiotic combinations ([2]; Ramizol and daptomycin: 0.015625 and 0.5, 0.03125 and 0.5, 0.0625 and 0.5, 0.125 and 0.5, 2 and 0.25, 2 and 0.125, 2 and 0.063, 2 and 0.031, 4 and 0.016 μg/mL): additive effect
MIC ([2]; ATCC29213, Table 4, checkerboard series with Chlopam): 0.5 µg/mL
MIC ([2]; ATCC29213, Table 7, checkerboard series with Ramizol): 0.5 µg/mL
mean FICI of combination with Chlopam ([2]; labelled antibiotic + Chlopam, mean of all pairwise combinations): 1.1
Effect of the combinations with Ramizol (by mean FICI) ([2]; labelled antibiotic + Ramizol): additive effect
mean FICI of combination with Ramizol ([2]; labelled antibiotic + Ramizol, mean of all pairwise combinations): 1.0

Reference: patent publication US20190328691A1, “ANTIBIOTIC THERAPY” (Boulos & Cooper Pharmaceuticals Pty Ltd, priority 2015, published 2019)
